Measurements reported in ChEMBL document CHEMBL3882725, “Indazole derivatives as JNK inhibitors and compositions and methods related thereto” (2002).

target: Mitogen-activated protein kinase 9 (Homo sapiens, UniProt P45984); assay: Inhibition of His6-tagged JNK2 (unknown origin) assessed as reduction in c-Jun phosphorylation using GST-c-Jun (1 to 79 residues) and [gamma32P]ATP incubated for 1 hr by scintillation counting assay
Sequence (P45984 whole entry, the tested form may be a part): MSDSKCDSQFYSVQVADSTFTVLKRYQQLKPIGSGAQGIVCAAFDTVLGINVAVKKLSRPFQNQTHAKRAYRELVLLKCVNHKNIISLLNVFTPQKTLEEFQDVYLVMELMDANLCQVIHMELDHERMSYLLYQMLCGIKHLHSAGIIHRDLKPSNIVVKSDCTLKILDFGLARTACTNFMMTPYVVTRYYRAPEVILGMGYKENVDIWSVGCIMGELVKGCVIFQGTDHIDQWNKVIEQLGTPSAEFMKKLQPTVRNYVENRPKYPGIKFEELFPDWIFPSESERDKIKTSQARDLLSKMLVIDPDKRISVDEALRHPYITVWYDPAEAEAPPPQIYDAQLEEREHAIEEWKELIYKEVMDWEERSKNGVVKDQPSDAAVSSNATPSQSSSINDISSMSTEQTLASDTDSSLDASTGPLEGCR

Row | SMILES | IC50
1 | O=C(O)CCc1ccc2[nH]nc(-c3ccc(F)cc3)c2c1 | ≤ 10 µM
2 | O=C(Nc1cccnc1)c1cccc(-c2n[nH]c3ccc(-c4nc[nH]n4)cc23)c1 | 0.5 to 10 µM
3 | c1cncc(-c2n[nH]c3ccc(-c4nnn[nH]4)cc23)c1 | ≤ 10 µM
4 | O=S(=O)(Nc1ccc2[nH]nc(-c3ccc(F)cc3)c2c1)c1ccccc1 | ≤ 10 µM
5 | COc1ccc(-c2n[nH]c3ccc(-c4ncn[nH]4)cc23)cc1 | 1 to 10 µM
6 | Fc1ccc(-c2n[nH]c3ccc(-c4nnc(Cc5ccccc5)[nH]4)cc23)cc1 | 1 to 10 µM
7 | Fc1ccc(-c2n[nH]c3ccc(-c4nnc(CN5CCOCC5)o4)cc23)cc1 | 1 to 10 µM
8 | CN(C)Cc1nc(-c2ccc3[nH]nc(-c4cccc(NC(=O)CC(C)(C)C)c4)c3c2)n[nH]1 | 0.5 to 10 µM
9 | O=C(O)c1cccc(C(=O)Nc2ccc3[nH]nc(-c4ccc(F)cc4)c3c2)c1 | 1 to 10 µM
10 | CC(=O)O[C@@H](C)C(=O)Nc1cccc(-c2n[nH]c3ccc(-c4nn[nH]n4)cc23)c1 | 0.5 to 10 µM
11 | CN(C)C(=O)c1ccc2[nH]nc(-c3ccc(F)cc3)c2c1 | ≤ 10 µM
12 | COC(=O)c1ccc(C(=O)Nc2ccc3[nH]nc(-c4ccc(F)cc4)c3c2)cc1 | ≤ 10 µM
13 | O=C(O)c1ccc(C(=O)Nc2ccc3[nH]nc(-c4ccccc4)c3c2)cc1 | 1 to 10 µM
14 | O=C(Nc1ccc2[nH]nc(-c3ccc(F)cc3)c2c1)c1cccs1 | 1 to 10 µM
15 | NC(=O)c1ccc2[nH]nc(-c3cccc(NC(=O)C4CC4)c3)c2c1 | 1 to 10 µM
16 | NC(=O)c1ccc2[nH]nc(-c3cccc(NC(=O)c4cccc(O)c4)c3)c2c1 | 1 to 10 µM
17 | CC(c1nc(-c2ccc3[nH]nc(-c4ccc(F)cc4)c3c2)n[nH]1)N(C)C (stereo not drawn) | 0.5 to 10 µM
18 | O=C(Nc1ccc2[nH]nc(-c3ccc(F)cc3)c2c1)c1cccnc1 | 1 to 10 µM
19 | CC(O)Cc1nnc(-c2ccc3[nH]nc(-c4ccc(F)cc4)c3c2)[nH]1 (stereo in doubt; form 2) | 1 to 10 µM
20 | C(=C\c1n[nH]c2ccc(-c3nnn[nH]3)cc12)/c1ccccc1 | 0.5 to 10 µM
21 | O=C(Nc1nnn[nH]1)c1ccc2[nH]nc(-c3ccc(F)cc3)c2c1 | 1 to 10 µM

Row | SMILES | IC50
22 | CCOC(=O)c1ccc2[nH]nc(-c3ccc(F)cc3)c2c1 | 1 to 10 µM
23 | c1n[nH]c(-c2ccc3[nH]nc(-c4ccoc4)c3c2)n1 | 1 to 10 µM
24 | NC(=O)c1ccc2[nH]nc(-c3cc4ccccc4s3)c2c1 | 1 to 10 µM
25 | O=C(NCc1ccc(F)cc1)c1cccc(-c2n[nH]c3ccc(-c4ncn[nH]4)cc23)c1 | 0.5 to 10 µM
26 | O=C(Nc1cccc(-c2n[nH]c3ccc(-c4nc[nH]n4)cc23)c1)C(=O)c1ccco1 | 1 to 10 µM
27 | COc1ccc(-c2n[nH]c3ccc([N+](=O)[O-])cc23)cc1OC | ≤ 10 µM
28 | O=C(Nc1cccc(-c2n[nH]c3ccc(-c4nc[nH]n4)cc23)c1)c1ccco1 | 0.5 to 10 µM
29 | CN(C)Cc1nc(-c2ccc3[nH]nc(-c4ccc5c(c4)OCO5)c3c2)n[nH]1 | 0.5 to 10 µM
30 | CC(C)(C)NC(=O)c1cccc(-c2n[nH]c3ccc(-c4ncn[nH]4)cc23)c1 | 0.5 to 10 µM
31 | CN(C)Cc1nnc(-c2ccc3[nH]nc(-c4ccc(F)cc4)c3c2)[nH]1 | 0.5 to 10 µM
32 | Nc1nnc(-c2ccc3[nH]nc(-c4ccc(F)cc4)c3c2)[nH]1 | 1 to 10 µM
33 | Fc1ccc(-c2n[nH]c3ccc(-c4n[nH]c(C5CCCN5)n4)cc23)cc1 (stereo not drawn) | 0.5 to 10 µM
34 | O=C(Nc1cccc(-c2n[nH]c3ccc(-c4nc[nH]n4)cc23)c1)[C@H](O)c1ccccc1 | 0.5 to 10 µM
35 | CN(C)CCOc1cccc(-c2n[nH]c3ccc(-c4nnn[nH]4)cc23)c1 | 1 to 10 µM
36 | O=C(Nc1cccc(-c2n[nH]c3ccc(-c4nc[nH]n4)cc23)c1)C(O)c1ccccc1 (stereo not drawn) | 0.5 to 10 µM
37 | NC(=O)c1ccc2[nH]nc(-c3ccc(F)cc3)c2c1 | 1 to 10 µM
38 | C(=C\c1n[nH]c2ccc(-c3nc[nH]n3)cc12)/c1ccccc1 | 1 to 10 µM
39 | O=C(Nc1cccnc1)c1ccc2[nH]nc(-c3ccc(F)cc3)c2c1 | 1 to 10 µM
40 | CN(C)Cc1nc(-c2ccc3[nH]nc(-c4cccc(NC(=O)c5cccnc5)c4)c3c2)n[nH]1 | 0.5 to 10 µM
41 | O=C(N[C@H]1c2ccccc2C[C@H]1O)c1cccc(-c2n[nH]c3ccc(-c4ncn[nH]4)cc23)c1 | 1 to 10 µM
42 | NC(=O)c1ccc2[nH]nc(-c3ccc4c(c3)OCCO4)c2c1 | 1 to 10 µM

Results, then the molecule that gave them:

Row | IC50 | SMILES
43 | ≤ 10 µM | O=C(Nc1ccccc1)c1ccc2[nH]nc(-c3ccc(F)cc3)c2c1
44 | 1 to 10 µM | Oc1ccccc1-c1n[nH]c2ccc(-c3nnn[nH]3)cc12
45 | 1 to 10 µM | NC(=O)c1ccc2[nH]nc(-c3cccc(NC(=O)Cc4ccccn4)c3)c2c1
46 | 1 to 10 µM | Nc1cccc(NC(=O)c2ccc3[nH]nc(-c4ccc(F)cc4)c3c2)c1
47 | 0.5 to 10 µM | Fc1ccc(-c2n[nH]c3ccc(-c4nn[nH]n4)cc23)cc1
48 | 0.5 to 10 µM | c1cc(OCCCN2CCCCC2)cc(-c2n[nH]c3ccc(-c4ncn[nH]4)cc23)c1
49 | 1 to 10 µM | CN(C)CC(=O)Nc1ccc(-c2n[nH]c3ccc(-c4nc[nH]n4)cc23)cc1
50 | 0.5 to 10 µM | CN(C)Cc1nc(-c2ccc3[nH]nc(-c4cccc(NC(=O)[C@H](O)c5ccccc5)c4)c3c2)n[nH]1
51 | 1 to 10 µM | COCCNc1cccc(-c2n[nH]c3ccc(C(N)=O)cc23)c1
52 | ≤ 10 µM | O=C(c1ccc2[nH]nc(-c3ccc(F)cc3)c2c1)N1CCNCC1
53 | 1 to 10 µM | O=C(Nc1cccc(O)c1)c1ccc2[nH]nc(-c3ccc(F)cc3)c2c1
54 | 1 to 10 µM | O=C(O)c1ccc(C(=O)Nc2ccc3[nH]nc(-c4ccncc4)c3c2)cc1
55 | 0.5 to 10 µM | O=C(Cc1ccc(F)cc1)Nc1cccc(-c2n[nH]c3ccc(-c4nc[nH]n4)cc23)c1
56 | 1 to 10 µM | CCN(CC)Cc1nc(-c2ccc3[nH]nc(-c4ccc(F)cc4)c3c2)n[nH]1
57 | 0.5 to 10 µM | O=C(NCC1CC1)c1cccc(-c2n[nH]c3ccc(-c4ncn[nH]4)cc23)c1
58 | 0.5 to 10 µM | O=C(CCN1CCCCC1)Nc1cccc(-c2n[nH]c3ccc(-c4nn[nH]n4)cc23)c1
59 | 0.5 to 10 µM | CN(C)Cc1n[nH]c(-c2ccc3[nH]nc(-c4cccc(C(=O)NC5CCC5)c4)c3c2)n1
60 | 1 to 10 µM | CC(C)c1ccc(-c2n[nH]c3ccc(-c4nnn[nH]4)cc23)cc1
61 | 1 to 10 µM | O=C(O)c1cccc(-c2n[nH]c3ccc(-c4nc[nH]n4)cc23)c1
62 | 1 to 10 µM | CN(C)CCOc1ccc(-c2n[nH]c3ccc(C(N)=O)cc23)cc1
63 | 0.5 to 10 µM | COc1ccc(C(=O)Nc2cccc(-c3n[nH]c4ccc(-c5nc[nH]n5)cc34)c2)cc1

Row | IC50 | SMILES
64 | 0.5 to 10 µM | CC(C)C(=O)Nc1cccc(-c2n[nH]c3ccc(-c4nc[nH]n4)cc23)c1
65 | 0.5 to 10 µM | NC(=O)c1ccc2[nH]nc(-c3cccc(NC(=O)Cc4ccccc4)c3)c2c1
66 | 0.5 to 10 µM | O=C(NCc1cccnc1)c1cccc(-c2n[nH]c3ccc(-c4ncn[nH]4)cc23)c1
67 | ≤ 10 µM | Fc1ccc(-c2n[nH]c3ccc(/C=C/c4ccncc4)cc23)cc1
68 | 0.5 to 10 µM | O=C(Nc1cccc(-c2n[nH]c3ccc(-c4nc[nH]n4)cc23)c1)c1ccno1
69 | 0.5 to 10 µM | CN(C)Cc1n[nH]c(-c2ccc3[nH]nc(-c4cccc(C(=O)NC5CC5)c4)c3c2)n1
70 | ≤ 10 µM | COC(=O)c1ccc2[nH]nc(-c3cc4ccccc4s3)c2c1
71 | 0.5 to 10 µM | Oc1cccc(-c2n[nH]c3ccc(-c4nnn[nH]4)cc23)c1
72 | 0.5 to 10 µM | NC(=O)c1ccc2[nH]nc(-c3cccc(NC(=O)Cc4ccc(F)cc4)c3)c2c1
73 | ≤ 10 µM | CCNc1ccc2[nH]nc(-c3ccc(F)cc3)c2c1
74 | 1 to 10 µM | c1cc(OCCN2CCNCC2)cc(-c2n[nH]c3ccc(-c4ncn[nH]4)cc23)c1
75 | 0.5 to 10 µM | CN(C)Cc1nc(-c2ccc3[nH]nc(-c4cccc(C(=O)N[C@@H]5CCc6ccccc65)c4)c3c2)n[nH]1
76 | 0.5 to 10 µM | O=C(N[C@H]1C[C@@H]1c1ccccc1)c1cccc(-c2n[nH]c3ccc(-c4nc[nH]n4)cc23)c1
77 | ≤ 10 µM | CC(C)c1cccc(-c2n[nH]c3ccc(C(N)=O)cc23)c1
78 | 0.5 to 10 µM | O=C(N[C@H]1CCc2ccccc21)c1cccc(-c2n[nH]c3ccc(-c4ncn[nH]4)cc23)c1
79 | ≤ 10 µM | FC(F)(F)c1ccc2[nH]nc(-c3ccccc3)c2c1
80 | 0.5 to 10 µM | O=C(CCc1ccccc1)Nc1cccc(-c2n[nH]c3ccc(-c4nc[nH]n4)cc23)c1
81 | 1 to 10 µM | O=C(Nc1ccc2[nH]nc(-c3ccccc3)c2c1)c1ccccc1O
82 | ≤ 10 µM | CN(C)CCNC(=O)c1ccc2[nH]nc(-c3ccc(F)cc3)c2c1
83 | 0.5 to 10 µM | c1cc(-c2n[nH]c3ccc(-c4nnn[nH]4)cc23)cs1
84 | 1 to 10 µM | OC1CCN(Cc2nnc(-c3ccc4[nH]nc(-c5ccc(F)cc5)c4c3)[nH]2)CC1

Row | IC50 | SMILES
85 | ≤ 10 µM | CCOc1cccc(-c2n[nH]c3ccc([N+](=O)[O-])cc23)c1
86 | 0.5 to 10 µM | c1ccc2oc(-c3n[nH]c4ccc(-c5nc[nH]n5)cc34)cc2c1
87 | 1 to 10 µM | NC(=O)c1ccc2[nH]nc(-c3cccc(NC(=O)CCN4CCCCC4)c3)c2c1
88 | 0.5 to 10 µM | CN(C)Cc1nc(-c2ccc3[nH]nc(-c4cccc(C(=O)NCc5ccc(F)cc5)c4)c3c2)n[nH]1
89 | 1 to 10 µM | CN(C)CCCNC(=O)c1ccc2[nH]nc(-c3cc4ccccc4o3)c2c1
90 | 1 to 10 µM | O=C(Nc1cccc(-c2n[nH]c3ccc(-c4nc[nH]n4)cc23)c1)C1CCCC1
91 | 0.5 to 10 µM | O=C(O)C(=O)Nc1cccc(-c2n[nH]c3ccc(-c4nc[nH]n4)cc23)c1
92 | 1 to 10 µM | Clc1ccccc1-c1n[nH]c2ccc(-c3ncn[nH]3)cc12
93 | 1 to 10 µM | c1ccc(CCc2n[nH]c3ccc(-c4nnn[nH]4)cc23)cc1
94 | 0.5 to 10 µM | CC(O)C(=O)Nc1cccc(-c2n[nH]c3ccc(-c4nc[nH]n4)cc23)c1 (stereo not drawn)
95 | 1 to 10 µM | Cc1n[nH]c(-c2ccc3[nH]nc(-c4ccc(F)cc4)c3c2)n1
96 | 1 to 10 µM | NC(=O)c1ccc2[nH]nc(-c3cccc(NC(=O)c4cccnc4)c3)c2c1
97 | 1 to 10 µM | O=C(O)c1ccc2[nH]nc(-c3cc4ccccc4s3)c2c1
98 | 0.5 to 10 µM | CC(C)c1n[nH]c(-c2ccc3[nH]nc(-c4ccc(F)cc4)c3c2)n1
99 | 1 to 10 µM | CC(=O)Nc1cccc(-c2n[nH]c3ccc(-c4ncn[nH]4)cc23)c1
100 | 0.5 to 10 µM | O=C(Nc1ccccc1)c1cccc(-c2n[nH]c3ccc(-c4n[nH]c(CN5CCCC5)n4)cc23)c1
101 | 0.5 to 10 µM | CNCc1nc(-c2ccc3[nH]nc(-c4ccc(F)cc4)c3c2)n[nH]1
102 | 1 to 10 µM | CNC(=O)c1ccc2[nH]nc(-c3cc4ccccc4o3)c2c1
103 | 0.5 to 10 µM | O=C(CN1CCOCC1)Nc1cccc(-c2n[nH]c3ccc(-c4nc[nH]n4)cc23)c1
